# Counter-ions that a name gives are not always drawn. Like-named read-outs stand apart in the source and are kept apart here.
# Experiments:
# [1] = target: Urokinase (uPA not bound to uPAR) (Homo sapiens, UniProt P00749); experiment: ENZ: Urokinase-activity-assay (uPA not bound to uPAR); assay type: biochemical; settings: assay without uPAR; for IC50: read-out: IC50 (µg/ml) ENZ (converted)
# Experimental: ENZ: Urokinase-activity-assay (uPA not bound to uPAR)
# This assay is identical to the uPA/uPAR assay of example one except that no uPAR is used, i.e. no incubation of the wells with uPAR and the following washing steps is necessary.
# [2] = target: T1, human urokinase (uPA) binding to its specific receptor (uPAR) (Homo sapiens, UniProt Q03405); experiment: ELISA-Test: inhibition of uPA binding to its specific receptor (uPAR); settings: synthetic or commercially available porphyrins; for IC50: read-out: IC50 (µg/ml) ELISA (converted)
# T1 sequence (Q03405 23-305 limits assumed): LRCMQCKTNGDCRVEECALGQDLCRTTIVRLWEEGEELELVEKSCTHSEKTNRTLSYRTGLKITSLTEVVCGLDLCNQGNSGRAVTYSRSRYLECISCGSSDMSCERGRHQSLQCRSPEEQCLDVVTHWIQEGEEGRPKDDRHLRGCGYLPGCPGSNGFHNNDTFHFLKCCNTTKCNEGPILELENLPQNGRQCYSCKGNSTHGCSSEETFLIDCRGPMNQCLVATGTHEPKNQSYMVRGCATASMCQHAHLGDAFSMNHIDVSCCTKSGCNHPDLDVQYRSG
# Experimental: This test is described by P. Rettenerger et al. in Biol. Chem. Hoppe-Seyler 376, pp. 587-594 (1995). An alternate ELISA-test is described in Behrendt et al., Meth. Enzymol. 233 (1993), 207-222. • ELISA-Test: Inhibition of human urokinase (uPA) binding to its specific receptor (uPAR). The assays are performed in Microtiterplates (96 wells). The following solutions are used: • washing buffer: PBS-buffer (w/o Mg^2+Ca^2+) + 0,05% Tween 20; uPAR-solution 100 ng/ml (10 ng/well) • blocking solution 2% skimmed milk powder (Merck) in washing buffer • incubation buffer 0.5% skimmed milk powder in PBS uPA-solution 10 ng/well detection solutions (per microfilter plate): • (1) 6 ml (100 mM Tris-CI pH 7.5 + 0.15% Tween 80) + 1.5 ml (10 µg) Plasminogen in aqua bidest. • (2) 6 ml (100 mM Tris-CI pH 7.5 + 0.15% Tween 80) + 1.5 ml (7.5 mg) Chromozyme PL in aqua bidest.
# The detection solution must be continously stirred.
# Testing substances: the testing substances are solved in DMSO. They are used in the test system with a highest concentration of 100 µg/ml. Dissolutions are prepared using PBS.
# Three controlls are performed: • a) positive controll: using 2% DMSO in PBS • b) negative controll: assay w/o receptor • c) inhibition controll: Inhibition (IC95 at 0.25 mg/ml) with Dextranesulfate (MW = 500.000)
# Each well is incubated by 10 ng uPAR for 1 hour at roomtemperature (RT). After washing once each well is incubated for half an hour (37°C) with 200 µl/well blocking solution. After triple washing testing substance solution or controll solutions are added (50 µl/well and incubated for 15 min at RT. An additional 50 µl of uPA solution (10 ng in incubation buffer) are added. After 1 hour at RT a triple washing is performed.
# Incubation 70 µl each of solution (1) and (2) at RT. After 20 min. a yellow color will be visible (the positive control reads an extinction of 1 after 40 min.). The detection is performed at […] (reference is […]) using a Dynatech MR 7000 ELISA reader.
# To obtain the percentage of inhibition the following formula is used: % Inhibtion = 100-100* (Extinction (Test) - Extinction (Neg. contr.)/(Extinction (Pos. contr.) - Extinction (Neg. contr.)) [formula]
# [3] = target: T2, NIH 3T3 cells transfected with a human urokinase receptor (Homo sapiens, UniProt Q03405); experiment: Cellular assay: uPA binding to NIH 3T3 cells transfected with a human urokinase receptor; assay type: cell-based
# T2 construct: expressed in transfected cells; host or cells: NIH 3T3 (clone NIH3T3 CH1 (15.10)), mouse fibroblasts
# T2 sequence (Q03405 23-305 limits assumed): as above
# Experimental: An enzyme test was used to detect inhibtion of urokinase activity and a cellular assay using NIH 3T3 (from ATCC) cells transfected with a human urokinase receptor was obtained.
# Medium: • DMEM (MEM dulbecco/Boehringer) with NaHCO3 and 4.5 g/l Glucose
# add: • 10% FCS (Seromed) • 2 mM L-Glutamine • 1 mM Na-Pyruvat • 100 U/ml Penicillin • 100 µg/ml Streptomycin • 1 µg/ml G 418 (Geneticin) • sterilize all supplements by filtration
# Take a 1 mg/ml fibronectin solution (in sterile water) and dilute an appropriate aligot with sterile PBS to a final concentration of 50 µg/ml. Coat the 96-well plate with 200 µl//well. Incubate for about 45 min. at room temperature. Remove the solution carefully. The wells should not be allowed to dry, use immediately. Prepare the cells during the 45 min. of incubation with fibronectin. NIH3T3 CH1 (15.10)-cells are grown to confluency in T 175 cell-culture flasks in the above described medium. Remove the media and rinse the cells with PBS, add 2 ml of Trypsin / EDTA solution for cell detachment. Stop trypsin activity by addition of approx. 6 ml medium . Take an aliquot of the cells to determine the cellnumber and adjust the celldensity to 8 x 10^5/ml with medium. Take the fibronectin coated 96 well palate and spread 100 µl cell-suspension/well, let the cells grow to confluency over night.
# Discard the medium carefully and wash the cells by addition of 200 µl medium (without supplements) / well and again discarding the medium. Add 200 µl 2% skimmed milk in medium. Incubate for 30 minutes at roomtemperatur. Wash twice with 200 µl medium (w supplements) / well carefully (to remove unbound skimmed milk). Preincubate with 50 µl testcompound diluted in medium, respectively medium only for the controls for 20 minutes; add 50 µl uPA-solution [200 ng/ml]. Incubate for 60 minutes at roomtemperature; wash carefully for 3 times with medium (200 µl/well). […] Measure at a wavelength of 405 nm (reference: 490 nm) with an ELISA-Reader. The yellow colour will appear after about 45 mins.
# [4] = target: T1, human urokinase (uPA) binding to its specific receptor (uPAR); experiment: ELISA-Test: inhibition of uPA binding to its specific receptor (uPAR)
# [5] = NIH3T3 CH1 (15.10)-cells, read-out: IC50 (µg/ml) cells (converted)
Compound,IC50 [1] [nM],IC50 [2] [nM],other results
"COC(=O)CCC1=C(C)c2cc3[nH]c(cc4nc(cc5[nH]c(cc1n2)c(CCC(=O)OC)c5C)C(S(=O)(=O)O)=C4C)c(S(=O)(=O)O)c3C [Deuteroporphyrin IX 2,4 Disulfonic Acid dimethylester]",3510,1820,–
CCC1=C(C)c2cc3[nH]c(cc4nc(cc5[nH]c(cc1n2)c(C)c5CCC(=O)O)C(CCC(=O)O)=C4C)c(C)c3CC [Mesoporphyrin IX Dihydrochloride],2120,406,IC50 [3]: 2770 nM
C=Cc1c(C)c2cc3nc(c(CC(=O)O)c4[nH]c(cc5nc(cc1[nH]2)C(C)=C5CC)c(C)c4C(=O)O)[C@@H](CCC(=O)O)[C@@H]3C [Chlorin e6],2350,520,"IC50 [3, 5]: 12900 nM"
N-Methyl Protoporphyrin IX,–,–,"IC50 (µg/ml) ELISA [2]: 0,4 µg/ml"
C=CC1=C(C)C(=Cc2[nH]c(Cc3[nH]c(C=C4NC(=O)C(C)=C4C=C)c(C)c3CCC(=O)O)c(CCC(=O)O)c2C)NC1=O [Bilirubine],–,–,inhibition at 300 µg/mL [4]: 11%
Al Phtalocyanine Tetrasulfonate,–,–,"IC50 (µg/ml) ENZ [1]: 2,3 µg/ml; IC50 (µg/ml) ELISA [2]: 3,7 µg/ml"
"CC1=C(CCC(=O)O)c2cc3[nH]c(cc4nc(cc5[nH]c(cc1n2)c(C)c5C(O)CO)C(C)=C4C(O)CO)c(C)c3CCC(=O)O (centres unmarked) [Deuteroporphyrin IX 2,4-Bis Glycol]",4280,8400,–
O=S(=O)(O)c1ccc(-c2c3nc(c(-c4ccc(S(=O)(=O)O)cc4)c4ccc([nH]4)c(-c4ccc(S(=O)(=O)O)cc4)c4nc(c(-c5ccc(S(=O)(=O)O)cc5)c5ccc2[nH]5)C=C4)C=C3)cc1 [meso-tetra-(4-Sulfonatophenyl)-Porphine Dihydrochlorid],674,214,"IC50 ([3]; read-out: IC50 (µg/ml) cells, NIH3T3 CH1 (15.10)-cells): 21300 nM"
O=C(O)c1ccc(-c2c3nc(c(-c4ccc(C(=O)O)cc4)c4ccc([nH]4)c(-c4ccc(C(=O)O)cc4)c4nc(c(-c5ccc(C(=O)O)cc5)c5ccc2[nH]5)C=C4)C=C3)cc1 [meso-tetra-(4-Carboxyphenyl)-Porphine],860,266,"IC50 [3, 5]: 30600 nM"
Hematoporphyrin D,–,–,"IC50 (µg/ml) ENZ [1]: 3,1 µg/ml; IC50 (µg/ml) cells ([3]; NIH3T3 CH1 (15.10)-cells): 1,4 µg/ml; IC50 (µg/ml) ELISA [2]: 0,52 µg/ml"
CCOC(=O)CCC1=C(C)c2cc3[nH]c(cc4nc(cc5[nH]c(cc1n2)c(C)c5CCC(=O)OCC)C(CCC(=O)OCC)=C4C)c(C)c3CCC(=O)OCC [Coproporphyrin III tetraethylester],95200,678,"IC50 [3, 5]: 124000 nM"

# — EP0792647A1, “Porphyrins as urokinase-type plasminogen activator receptor antagonists” (BOEHRINGER MANNHEIM GMBH, priority 1996, dated 1997)
